Experimental data as given in patent US20050233435A1, “Plasmodium axenic liver stages as a noninfectious whole organism malaria vaccine” (priority 2003, published 2005).

System: P. berghei sporozoites
Assay: Host cell-free transformation of sporozoites into EEFs (liver stages)
Format: cell-based
Details: Plasmodium berghei; lactacystin 10 μM in the culture medium
Description: Transformation medium and quantification of transformation: Sporozoites were suspended in DMEM medium (BioWhittaker) containing 2 mM of L-glutamine, 4.5 g/l glucose and supplemented with 10% Fetal Bovine Serum (FBS; HyClone) and 500 U/ml penicillin/streptomycin and 1.25 μl/ml fungizon (Sigma). For the generation of Plasmodium axenic liver stages, 5×10^4 sporozoites were inoculated per well of a 8 well chamber slide (Labtek) and maintained at 37° C. in 5% CO2. Initially, slides were coated with Matrigel (Becton Dickinson) at density of 100 μg/cm^2 to improve the development. Matrigel improved attachment of the parasites to the slide, but was not essential for transformation.
To determine transformation rates for various conditions and slides, the host cell-free cultures of GFP-expressing P. berghei sporozoites were examined by fluorescence microscopy at 400× magnification using an Eclipse TE 300 fluorescence microscope (Nikon, Inc.) using a green filter (excitation wavelength 495 nm/emission wavelength 519 nm). EEFs were scored as completely transformed only when they appeared completely spherical with no sporozoite remnants visible. Each count was performed in triplicate on three independent experiments done with sporozoites isolated from different batches of infected mosquitoes.

Work on `CC(=O)N[C@@H](CSC(=O)[C@]1([C@@H](O)C(C)C)NC(=O)[C@H](C)[C@@H]1O)C(=O)O` [lactacystin] yielded an inhibition at 10 µM of about 70%.
